According to patent US6376521B1, “A3 adenosine receptor antagonists” (The United States of America as represented by the …, priority 1998, dated 2002):
Where two headings read alike, the source gives them in different places.

How the values were obtained:
A2A adenosine receptors [1] = target: T1, A2A adenosine receptors (Rattus norvegicus, UniProt P30543); conditions: Table 3, cited from earlier work; for Ki: compounds 59, 68, values taken from van Rhee et al. 1996 and Jiang et al. 1997, read-out: rA2A Ki ± S.E.M.
T1 construct: from tissue
T1 sequence (P30543 whole entry): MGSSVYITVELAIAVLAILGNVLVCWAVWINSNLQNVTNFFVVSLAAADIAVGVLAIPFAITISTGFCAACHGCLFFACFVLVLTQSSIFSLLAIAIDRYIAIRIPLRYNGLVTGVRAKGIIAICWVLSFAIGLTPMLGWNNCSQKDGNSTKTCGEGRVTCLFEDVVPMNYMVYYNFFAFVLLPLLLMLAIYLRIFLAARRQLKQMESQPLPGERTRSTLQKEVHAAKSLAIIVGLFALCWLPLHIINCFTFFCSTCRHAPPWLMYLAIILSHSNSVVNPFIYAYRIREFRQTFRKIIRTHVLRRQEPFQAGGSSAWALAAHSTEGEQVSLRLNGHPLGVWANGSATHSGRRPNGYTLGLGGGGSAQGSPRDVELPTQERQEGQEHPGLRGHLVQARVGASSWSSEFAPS

A2A adenosine receptors [2] = target: T1, A2A adenosine receptors; assay: Displacement of specific [3H]CGS 21680 binding in rat striatal membranes; conditions: for Ki: [3H]CGS 21680, rat striatal membranes, n = 3-6, read-out: rA2A Ki ± S.E.M.
human A3 receptors = target: T2, human A3 receptors (Homo sapiens, UniProt P0DMS8); assay: Displacement of specific [125I]AB-MECA binding at human A3 receptors expressed in HEK cells, in membranes; conditions: for Ki: [125I]AB-MECA, HEK cell membranes, n = 3-4, read-out: hA3 Ki ± S.E.M.; for rA1/hA3: ratio of affinities rat A1 vs human A3
T2 construct: expressed in transfected cells
T2 sequence (P0DMS8 1-318): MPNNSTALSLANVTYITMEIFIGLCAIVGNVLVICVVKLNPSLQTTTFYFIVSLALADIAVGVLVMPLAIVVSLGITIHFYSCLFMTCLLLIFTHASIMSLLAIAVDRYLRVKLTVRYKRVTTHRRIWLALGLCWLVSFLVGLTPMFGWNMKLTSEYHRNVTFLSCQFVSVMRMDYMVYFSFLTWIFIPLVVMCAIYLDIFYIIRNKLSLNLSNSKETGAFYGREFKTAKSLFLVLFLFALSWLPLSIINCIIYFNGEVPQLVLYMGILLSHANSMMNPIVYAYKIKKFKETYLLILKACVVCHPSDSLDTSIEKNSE

rat A3 receptors = target: T3, rat A3 receptors (Rattus norvegicus, UniProt P28647); assay: Displacement of specific [125I]AB-MECA binding at rat A3 receptors stably expressed in CHO cells; conditions: Table 4; for Ki: [125I]AB-MECA, CHO cells, n = 3-5, read-out: rA3 Ki; for rA3/hA3: ratio of affinities at rat vs. human A3 receptors; for rA1/rA3: ratio of affinities rat A1 vs rat A3
T3 construct: expressed in transfected cells
T3 sequence (P28647 1-320): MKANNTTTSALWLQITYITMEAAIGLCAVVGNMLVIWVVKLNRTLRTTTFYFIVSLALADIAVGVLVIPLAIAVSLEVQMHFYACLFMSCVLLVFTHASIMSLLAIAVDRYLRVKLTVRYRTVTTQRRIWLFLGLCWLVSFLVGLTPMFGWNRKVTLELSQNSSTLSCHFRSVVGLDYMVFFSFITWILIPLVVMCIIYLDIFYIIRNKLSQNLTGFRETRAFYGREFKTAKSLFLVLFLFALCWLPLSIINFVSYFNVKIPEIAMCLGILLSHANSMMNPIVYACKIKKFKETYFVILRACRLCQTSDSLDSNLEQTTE

A1 adenosine receptors = target: T4, A1 adenosine receptors (Rattus norvegicus, UniProt P25099); assay: Displacement of specific [3H]R-PIA binding in rat brain membranes; conditions: for rA1 percentage of specific binding displaced: Table 2; for Ki: Table 2, compounds 33-58, [3H]R-PIA, rat brain membranes, n = 3-5, read-out: rA1 Ki ± S.E.M.
T4 construct: from tissue
T4 sequence (P25099 1-326): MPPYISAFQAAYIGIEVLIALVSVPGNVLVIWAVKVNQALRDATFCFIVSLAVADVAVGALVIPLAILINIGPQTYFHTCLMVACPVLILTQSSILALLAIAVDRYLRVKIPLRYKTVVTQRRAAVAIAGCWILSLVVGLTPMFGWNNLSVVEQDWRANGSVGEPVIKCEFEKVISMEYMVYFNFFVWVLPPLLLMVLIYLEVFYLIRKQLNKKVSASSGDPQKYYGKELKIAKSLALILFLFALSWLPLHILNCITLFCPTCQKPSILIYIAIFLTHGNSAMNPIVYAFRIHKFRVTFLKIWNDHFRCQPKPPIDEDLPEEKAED

CCOC(=O)C1=C(C)NC(c2ccccc2)=C(C(=O)OCC)C1C (stereo not drawn) [Compound 59]
Ki (A2A adenosine receptors [1]): 35900 ± 15300 nM

CCOC(=O)C1=C(C)NC(c2ccccc2)=C(C(=O)OCc2ccccc2)C1C#Cc1ccccc1 (stereo not drawn) [Compound 69]
rA2A displacement of specific binding (class d) (A2A adenosine receptors [1]; at 10^−4 M, compound 69, value taken from the literature): d (10^−4) (Displacement of < 10% of specific binding at the indicated concentration (M).)

CCOC(=O)C1=C(c2ccccc2)NC(CC)=C(C(=O)SCC)C1CC (racemic) [Compound 75, 5-Ethyl 2,4-diethyl-6-phenyl-3-(ethylsulfanylcarbonyl)-1,4-(±)-dihydropyridine-5-carboxylate]
Ki (A2A adenosine receptors [2]; Table 3): 29100 ± 9900 nM
Ki (human A3 receptors; Table 3): 907 ± 44 nM
rA1/hA3 (human A3 receptors; Table 3): >50
Ki (rat A3 receptors): 2520 ± 880 nM
rA3/hA3 (rat A3 receptors): 2.8
rA1/rA3 (rat A3 receptors): >30
inhibition at 100 µM (A1 adenosine receptors; Table 3, at 10^−4 M, read-out: rA1 % inhibition (percentage of specific binding displaced)): 34 ± 7%

CCCc1c(C(=O)SCC)c(C)nc(-c2ccccc2)c1C(=O)OCC [Compound 38, 5-Ethyl-2-methyl-4-propyl-3-(ethylsulfanylcarbonyl)-6-phenylpyridine-5-carboxylate]
Ki (A2A adenosine receptors [2]; Table 2, compounds 33-58): 7530 ± 2700 nM
Ki (human A3 receptors; Table 2, compounds 33-58): 194 ± 51 nM
rA1/hA3 (human A3 receptors; Table 2): >700
Ki (rat A3 receptors): 650 ± 70 nM
rA3/hA3 (rat A3 receptors): 3.4
rA1/rA3 (rat A3 receptors): >100
rA1 percentage of specific binding displaced (A1 adenosine receptors; at 10^−4 M): 29 ± 6% (10^−4)

CCCCc1nc(-c2ccccc2)c(C(=O)OCC)c(CC)c1C(=O)SCC [Compound 57, 5-Ethyl 2-butyl-4-ethyl-3-(ethylsulfanylcarbonyl)-6-phenylpyridine-5-carboxylate]
rA2A displacement of specific binding (class d) (A2A adenosine receptors [2]; Table 2, at 10^−4 M): d (10^−4) (Displacement of <10% of specific binding at the indicated concentration (M).)
Ki (human A3 receptors; Table 2, compounds 33-58): 35 ± 9.1 nM
rA1/hA3 (human A3 receptors; Table 2): 1200
Ki (rat A3 receptors): 2260 ± 50 nM
rA3/hA3 (rat A3 receptors): 64
rA1/rA3 (rat A3 receptors): 18
Ki (A1 adenosine receptors): 40300 ± 7400 nM

CCCSC(=O)c1c(CC)nc(-c2ccccc2)c(C(=O)OCC)c1CC [Compound 53, 5-Ethyl 2,4-diethyl-3-propylsulfanylcarbonyl-6-phenylpyridine-5-carboxylate]
Ki (A2A adenosine receptors [2]; Table 2, compounds 33-58): 15700 ± 4400 nM
Ki (human A3 receptors; Table 2, compounds 33-58): 15.9 ± 5.4 nM
rA1/hA3 (human A3 receptors; Table 2): 520
Ki (rat A3 receptors): 294 ± 6 nM
rA3/hA3 (rat A3 receptors): 18
rA1/rA3 (rat A3 receptors): 28
Ki (A1 adenosine receptors): 8220 ± 1210 nM

CCOC(=O)C1=C(C)NC(c2ccccc2)=C(C(=O)OCC)C1C=Cc1ccccc1 (stereo not drawn) [Compound 68]
Ki (A2A adenosine receptors [1]): 4770 ± 290 nM

CCSC(=O)c1c(CC)nc(-c2ccccc2)c(C(=O)OCCO)c1CC [Compound 50, 5-Hydroxylethyl 2,4-diethyl-3-(ethylsulfanylcarbonyl)-6-phenylpyridine-5-carboxylate]
Ki (A2A adenosine receptors [2]; Table 2, compounds 33-58): 10000 ± 3000 nM
Ki (human A3 receptors; Table 2, compounds 33-58): 188 ± 61 nM
rA1/hA3 (human A3 receptors; Table 2): 93
Ki (rat A3 receptors): 2870 ± 480 nM
rA3/hA3 (rat A3 receptors): 15
rA1/rA3 (rat A3 receptors): 6.1
Ki (A1 adenosine receptors): 17400 ± 5290 nM

CCOC(=O)c1c(-c2ccccc2)nc(CC)c(C(=O)SCC)c1CC [Compound 48, 5-Ethyl 2,4-diethyl-3-(ethylsulfanylcarbonyl)-6-phenylpyridine-5-carboxylate]
Ki (A2A adenosine receptors [2]; Table 2, compounds 33-58): 6130 ± 1280 nM
Ki (human A3 receptors; Table 2, compounds 33-58): 20 ± 1.9 nM
rA1/hA3 (human A3 receptors; Table 2): >3000
Ki (rat A3 receptors): 410 ± 48 nM
rA3/hA3 (rat A3 receptors): 21
rA1/rA3 (rat A3 receptors): >100
rA1 percentage of specific binding displaced (A1 adenosine receptors; at 10^−4 M): 41 ± 6% (10^−4)
